Data on 1 molecule can be found in BindingDB's records for doi:10.1016/s0960-894x(03)00160-4 (Universidad Complutense, 2003).

The target of this experiment is T1, Alpha-1A/Alpha-1B/Alpha-1D adrenergic receptor (Rattus norvegicus, UniProt P15823+P43140+P23944).
T1 sequence (P15823 whole entry): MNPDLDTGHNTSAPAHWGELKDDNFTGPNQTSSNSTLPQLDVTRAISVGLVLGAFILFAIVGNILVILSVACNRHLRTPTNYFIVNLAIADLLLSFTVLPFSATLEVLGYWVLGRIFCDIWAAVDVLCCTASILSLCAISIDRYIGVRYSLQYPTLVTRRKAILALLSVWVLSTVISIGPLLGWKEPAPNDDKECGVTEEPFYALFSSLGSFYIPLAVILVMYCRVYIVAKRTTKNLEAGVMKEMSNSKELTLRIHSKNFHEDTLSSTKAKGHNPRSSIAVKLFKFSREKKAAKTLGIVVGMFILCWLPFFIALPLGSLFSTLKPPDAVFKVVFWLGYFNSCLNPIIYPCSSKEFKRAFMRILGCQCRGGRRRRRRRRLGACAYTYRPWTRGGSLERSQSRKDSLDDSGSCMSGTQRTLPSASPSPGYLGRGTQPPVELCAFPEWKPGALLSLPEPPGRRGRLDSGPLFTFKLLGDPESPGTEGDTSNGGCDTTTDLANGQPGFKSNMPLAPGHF
T1 sequence (P43140 whole entry): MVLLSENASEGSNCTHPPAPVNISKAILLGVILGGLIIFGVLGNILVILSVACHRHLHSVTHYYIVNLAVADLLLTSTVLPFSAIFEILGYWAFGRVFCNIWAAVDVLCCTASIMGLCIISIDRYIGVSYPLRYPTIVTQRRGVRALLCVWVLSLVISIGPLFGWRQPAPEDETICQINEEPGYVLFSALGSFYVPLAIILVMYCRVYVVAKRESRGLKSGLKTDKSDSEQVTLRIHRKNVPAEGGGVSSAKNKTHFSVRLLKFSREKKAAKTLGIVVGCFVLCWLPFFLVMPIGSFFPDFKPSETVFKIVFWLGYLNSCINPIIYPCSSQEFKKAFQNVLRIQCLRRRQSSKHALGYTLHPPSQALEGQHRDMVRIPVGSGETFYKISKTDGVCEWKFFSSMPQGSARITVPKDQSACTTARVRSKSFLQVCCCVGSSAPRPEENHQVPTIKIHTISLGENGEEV
T1 sequence (P23944 whole entry): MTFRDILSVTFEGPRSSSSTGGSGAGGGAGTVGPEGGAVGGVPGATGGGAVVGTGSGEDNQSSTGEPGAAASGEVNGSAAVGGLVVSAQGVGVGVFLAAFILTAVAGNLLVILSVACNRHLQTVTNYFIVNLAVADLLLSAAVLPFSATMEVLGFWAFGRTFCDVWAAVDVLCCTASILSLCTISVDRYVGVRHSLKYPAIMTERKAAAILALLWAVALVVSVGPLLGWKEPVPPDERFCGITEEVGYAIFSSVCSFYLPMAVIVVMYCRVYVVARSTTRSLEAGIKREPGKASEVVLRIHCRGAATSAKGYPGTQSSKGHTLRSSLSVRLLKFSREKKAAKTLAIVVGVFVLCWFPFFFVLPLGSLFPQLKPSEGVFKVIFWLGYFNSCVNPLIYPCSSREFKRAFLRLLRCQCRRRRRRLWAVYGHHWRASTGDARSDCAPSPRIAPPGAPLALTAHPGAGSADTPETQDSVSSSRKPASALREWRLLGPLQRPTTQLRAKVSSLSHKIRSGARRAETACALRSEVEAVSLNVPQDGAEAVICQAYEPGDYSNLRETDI
As to the kind of experiment: Binding affinity towards Alpha-1 adrenergic receptor in rat cerebral cortex membranes using [3H]prazosin as radioligand.

Where only a bound is given, the exact number is not on record here.

By Ki is commonly meant a measure of affinity in units of concentration, obtained from inhibition or displacement. A high value points to lower affinity. In the case of `O=c1n(CN2CCN(c3cccc4ccccc34)CC2)c(O)c2n1CCC2` [2-(4-Naphthalen-1-yl-piperazin-1-ylmethyl)-tetrahydro-pyrrolo[1,2-c]imidazole-1,3-dione], the Ki is more than 1 µM.
